The test system of data set [1] is RAW264.7. Kind of data set: Antiinflammatory activity in mouse RAW264.7 cells assessed as inhibition of LPS-induced NO production at 3 to 30 ug/ml after 24 hrs by Griess reaction. In kind it is functional. (In general: The Griess reaction detects nitrite, a stable product of nitric oxide.)
For data set [2], the system named is RAW264.7. Kind of data set: Antiinflammatory activity in mouse RAW264.7 cells assessed as inhibition of LPS-induced COX2 expression at 3 to 30 ug/ml after 18 hrs by Western blot analysis. Format: functional, cell-based. (Immunoblotting shows a protein as a band on a membrane.)
For data set [3], the system named is RAW264.7. Description: Antiinflammatory activity in mouse RAW264.7 cells assessed as inhibition of LPS-induced NO production at 30 ug/ml after 24 hrs by Griess reaction. Format: functional, cell-based.
The subject of data set [4] is RAW264.7. Description: Antiinflammatory activity in mouse RAW264.7 cells assessed as inhibition of LPS-induced iNOS expression after 18 hrs by Western blot analysis. Format: functional, cell-based.
Data set [5] deals with RAW264.7. Description: (§1) Cytotoxicity against mouse RAW264.7 cells assessed as cell viability at 3 to 30 ug/ml after 24 hrs by MTT assay. In kind it is cell-based. The conditions noted are these: raw264.7, 24 h. A general note: Tetrazolium assays rely on reduction of a dye to a coloured formazan, in cell work by metabolically active cells.
The nature of data set [6]: as §1. The conditions noted are these: RAW264.7 cells, read-out: Activity. In kind it is cell-based.

Active and inactive are the calls of the source. No cut-off for these calls is given here.

In the case of `COc1cc(C[C@H]2CO[C@H](c3ccc(O)c(OC)c3)[C@H]2CO)ccc1O`, the inhibition entry with RAW264.7 [1] is “inactive”.
Consider `COc1cc([C@H]2OC[C@H]3[C@@H]2CO[C@H]3c2ccc(O)c(OC)c2)ccc1O` (stereo in doubt; 12), for which the inhibition entry with RAW264.7 [1] was “inactive”.
Regarding `COc1ccc(-c2cc3cc([C@@H](O)CCO)cc(OC)c3o2)cc1OC`, in the data set on RAW264.7 [2], the inhibition entry is “Active”. Moreover, in the data set with RAW264.7 [3], the inhibition entry is “inactive”. Moreover, the inhibition entry in the data set on RAW264.7 [4] is “Dose-dependent effect”. The Activity entry in the data set on RAW264.7 [5] was “Non-toxic”.
`COc1cc(-c2oc3c(OC)cc(CCCO)cc3c2C=O)ccc1O`: the inhibition result in the data set on RAW264.7 [1] was “inactive”.
Consider `COc1ccc(-c2cc3cc(CCCO)cc(OC)c3o2)cc1OC`, for which the inhibition result with RAW264.7 [3] is “inactive”.
As to `COc1cc([C@H]2OC[C@H]3[C@@H]2CO[C@H]3c2ccc(O)c(OC)c2)ccc1O` (stereo in doubt; 11), in the data set on RAW264.7 [1], the inhibition result is “inactive”.
Still for that read-out and setting: under `COc1cc(CCCO)cc2cc(-c3ccc4c(c3)OCO4)oc12` stands “inactive”; under `COc1cc(C(O)CCO)cc2cc(-c3ccc4c(c3)OCO4)oc12` (centres undefined), “inactive”.
Take `COc1cc([C@@H]2OCC3C(=O)OCC32)ccc1O` (some centres undefined): in the data set on RAW264.7 [3], the inhibition result is “inactive”. Further, in data set [6], the viability at 24 h worked out at 60%.
Take `COc1cc([C@H]2OC[C@H]3[C@@H]2CO[C@@H]3c2cc(OC)c(O)c(OC)c2)cc(OC)c1O`: in the data set on RAW264.7 [1], the inhibition result was “inactive”.

Source of the values: ChEMBL document CHEMBL3632471, “Inhibitory effects of compounds from Styrax obassia on NO production” (Bioorg Med Chem Lett, 2015).
